Assay results: the METLIN SMRT retention time set (Domingo-Almenara et al. 2019)

Assay: gradient 5% acetonitrile 3 min, to 50% in 2 min, to 85% in 15 min, held 3 min, 100 µL/min
Details: column: Zorbax Extend-C18 2.1 x 50 mm; eluents: water / acetonitrile, 0.1% formic acid
Summary of the method: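 A Zorbax Extend-C18 column (2.1 × 50 mm, 1.8 μm) run at 100 μL/min with water and acetonitrile, both containing 0.1% formic acid, separated mixtures of ~100 pure standards. The HPLC was coupled to a quadrupole time-of-flight mass spectrometer operated in positive and negative ionization mode, with dead and dwell volumes of 40 μL and 900 μL. Each retention time was taken from a computationally picked adduct peak that was then manually inspected.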

In the case of `CCc1ccc(C(=O)Nc2nnc(SCc3nnc(-c4ccccc4C)o3)s2)cc1`, the RP-LC retention time is reported as 1080 s.
Work on `CCc1noc(NC(C)=O)c1-c1ccc(OC)c(S(=O)(=O)Nc2cccc(Cl)c2C)c1` yielded an RP-LC retention time of 894 s.
Compound `c1ccc(N2CCN(Cc3nc(-c4ccc(N5CCSCC5)nc4)no3)CC2)nc1` has an RP-LC retention time of 625 s.
For `COc1cccc(/C=C/C(=O)NC2(c3nc(C(C)C)no3)CCCCC2)c1`, the RP-LC retention time was 1050 s.
With `Cn1ccc2cc(S(=O)(=O)N3CCCC(C(=O)NCCCN4CCCCCC4)C3)ccc21` (stereo unspecified) the RP-LC retention time was 668 s.
Compound `CCOC(=O)c1nc(Nc2ccc(C)c(C)c2)c2ccccc2n1` has an RP-LC retention time of 934 s.
For `O=C(CN1C(=O)NC2(CCCCC2)C1=O)Nc1cccc(Cl)c1`, the RP-LC retention time was 815 s.
With `O=c1oc2c(CN3CCCC3)c(O)ccc2c2c1CCC2` the RP-LC retention time was 588 s.
`O=C(NCCc1csc(-c2cccs2)n1)C1CCN(C(=O)C2CCCC2)CC1` showed an RP-LC retention time of 782 s.
Compound `CCCn1ccc2sc(C)c(C(=O)NCc3ccc(C)cc3)c2c1=O` has an RP-LC retention time of 948 s.
In the case of `COc1ccc(CC(=O)Nc2cc(-c3cn4cccnc4n3)ccc2OC)cc1`, the RP-LC retention time is reported as 675 s.
Compound `O=C(NCc1csc(-c2cccs2)n1)C1CCN(S(=O)(=O)c2ccc(Cl)cc2)CC1` has an RP-LC retention time of 927 s.
`CC1CCN(c2ncc(NC(=O)c3ccc(Br)cc3)cc2C(=O)O)CC1` gave an RP-LC retention time of 759 s.
Compound `CCn1cccc(-c2nnc(SCC(=O)NCc3ccco3)n2C)c1=O` has an RP-LC retention time of 576 s.
With `CN1CCN(C2Cc3ccccc3Sc3ccc(Cl)cc32)CC1` (stereo unspecified) the RP-LC retention time was 872 s.
In the case of `CCc1nc2cc(-c3noc(-c4ccc(NC(C)=O)cc4)n3)ccc2o1`, the RP-LC retention time is reported as 925 s.
For `Cc1ccc(-c2nc(NCC3CCCO3)ncc2C(=O)O)cc1` (stereo unspecified), the RP-LC retention time was 735 s.
Compound `COc1cccc(NC(=O)Cn2cccc2-c2nnc(-c3ccccc3)o2)c1` has an RP-LC retention time of 940 s.
In the case of `COc1cc(Nc2nc(-c3nnn(-c4ccc(F)cc4)c3C)ns2)cc(OC)c1`, the RP-LC retention time is reported as 990 s.
`CN(C)CCNC(=O)c1ccc(CS(=O)Cc2ccc(Cl)cc2)o1` (stereo unspecified) gave an RP-LC retention time of 604 s.
`COc1ccc(OC)c2[nH]c(C(=O)N3CCCC3)cc12` showed an RP-LC retention time of 823 s.
With `COCCn1ccc2nc(C)c(C(=O)Nc3ccc4c(c3)OCCO4)cc2c1=O` the RP-LC retention time was 679 s.
With `COC(=O)c1ccc(NC(=O)COc2cc(C)nc(N3CCCC3)n2)cc1` the RP-LC retention time was 638 s.
With `CCN1C(SCC(=O)Nc2c(C)cc(C)cc2C)=NS(=O)(=O)c2ccccc21` the RP-LC retention time was 788 s.
With `COc1ccc(C(=O)N2CCCC(c3nnc(-c4ccccc4)o3)C2)cc1` (stereo unspecified) the RP-LC retention time was 804 s.
`Cc1cccc(N2CCN(C(=O)C3CC(=O)N(c4cccc(NC(=O)C(C)C)c4)C3)CC2)c1` (stereo unspecified) gave an RP-LC retention time of 803 s.
For `CCOc1ccc(NC(=O)CN2C(=O)c3ccccc3Sc3ncccc32)cc1`, the RP-LC retention time was 843 s.
`O=C(CN1CCC(c2nc(-c3ccc(F)cc3)no2)CC1)N1CCN(c2ccccc2)CC1` showed an RP-LC retention time of 618 s.
In the case of `COc1ccccc1-c1nnc(-c2ccc(Cl)c(S(=O)(=O)N3CCCC3)c2)o1`, the RP-LC retention time is reported as 992 s.
In the case of `O=C(c1ccc2nc[nH]c2c1)N1CCCN(c2cc(-c3ccc(Br)cc3)[nH]n2)CC1`, the RP-LC retention time is reported as 625 s.
`CCC1CCCCN1C(=O)Cc1c(C)nc2nc(-c3ccc(C(C)(C)C)cc3)nn2c1C` (stereo unspecified) gave an RP-LC retention time of 1160 s.
In the case of `Cc1cccc(CNC(=O)c2ccc3c(c2)Sc2ncccc2C(=O)N3C)c1`, the RP-LC retention time is reported as 796 s.
Compound `O=C(Cc1csc(NS(=O)(=O)c2ccc(Cl)cc2)n1)NCc1cccs1` has an RP-LC retention time of 725 s.
With `COC(=O)c1cccc(N2C=C(C#N)S(=O)(=O)c3ccc(Cl)cc32)c1` the RP-LC retention time was 930 s.
In the case of `Cn1cnc2c(C(=O)Nc3cccc(Cl)c3)nn(-c3ccccc3)c2c1=O`, the RP-LC retention time is reported as 945 s.
With `Cc1ccc(S(=O)(=O)N2CCCCC2)cc1-c1nnc(-c2ccc(F)cc2)o1` the RP-LC retention time was 1110 s.
Compound `Cc1cccc(S(=O)(=O)Nc2cc(-c3cn4ccc(C)cc4n3)ccc2C)c1` has an RP-LC retention time of 704 s.
Work on `O=C(NCC1CCCO1)C1CCN(c2ncccc2-c2nc(-c3ccccc3)no2)CC1` (stereo unspecified) yielded an RP-LC retention time of 870 s.
With `O=C(Nc1nc(C(=O)NCc2nc(-c3ccccc3)no2)co1)c1ccsc1` the RP-LC retention time was 707 s.
`CCc1cccc(NC(=O)N2[C@H]3CC[C@@H]2c2cncnc2C3)c1` gave an RP-LC retention time of 741 s.
For `O=C(O)c1nn(Cc2ccc(Cl)cc2Cl)c2ccccc12`, the RP-LC retention time was 1050 s.
Compound `CN(C)CCn1nnc2cc(-c3noc(-c4cccc(Cl)c4)n3)ccc21` has an RP-LC retention time of 708 s.
Work on `Cc1ccc(CCCN2CCCC(COc3ccccc3C(=O)N3CCCCC3)C2)o1` (stereo unspecified) yielded an RP-LC retention time of 748 s.
Compound `CCc1nc2c(c(=O)n1CC(=O)Nc1cc(C)ccc1OC)CN(Cc1ccccc1)CC2` has an RP-LC retention time of 681 s.
With `CC(=O)Nc1ccc(CCc2nc3ccc(C(=O)NCCc4c[nH]c5ccccc45)cc3[nH]2)cc1` the RP-LC retention time was 644 s.
For `O=C(Nc1onc2c1CSC2)c1cccc(-n2cnnn2)c1`, the RP-LC retention time was 647 s.
Compound `Cc1cccc(C(=O)Nc2ccc(N3CCN(C4CCCCC4)C3=O)nc2)c1` has an RP-LC retention time of 950 s.
`Cc1nc2ccccn2c(=O)c1CCN1CCC(C(=O)c2ccc(F)cc2)CC1` showed an RP-LC retention time of 643 s.
`Clc1cccc(-c2nc(Cn3ccnc3)no2)c1` showed an RP-LC retention time of 629 s.
In the case of `Cn1nccc1-c1cccc(-c2noc(-c3ccnc(Cl)c3)n2)c1`, the RP-LC retention time is reported as 1050 s.
Work on `CC(C)c1noc(-c2ccnc(-n3cnc(C(=O)NC4CCCC4)c3)c2)n1` yielded an RP-LC retention time of 693 s.
With `Cc1ccc2nc(NC(=O)C3CCN(C(=O)C4Sc5ccccc5NC4=O)CC3)sc2c1` (stereo unspecified) the RP-LC retention time was 838 s.
Compound `CC1CCc2nc3ncn(CC(=O)Nc4cccc(C#N)c4)c(=O)c3cc2C1` (stereo unspecified) has an RP-LC retention time of 738 s.
In the case of `CCOc1ccc(-c2noc(CN3C(=O)COc4ccccc43)n2)cc1`, the RP-LC retention time is reported as 1030 s.
In the case of `CN1C(=O)c2cc(C(=O)NCc3ccccc3F)nn2CC1(C)C(=O)NCc1ccccc1` (stereo unspecified), the RP-LC retention time is reported as 697 s.
In the case of `Cc1cc(-c2c(C)sc(C)c2S(=O)(=O)NCc2ccc(Cl)cc2)n[nH]1`, the RP-LC retention time is reported as 1090 s.
For `CCOc1ccccc1CNC(=O)CN1CCN(Cc2ccccc2)C1=O`, the RP-LC retention time was 848 s.
Work on `CCN1c2cc(C)ccc2-n2cccc2C12CCN(C(=O)NCCCOC)CC2` yielded an RP-LC retention time of 931 s.
Work on `Cc1c(Cl)cccc1-c1ccc(CNCC2CCCO2)o1` (stereo unspecified) yielded an RP-LC retention time of 734 s.
`CN1C(=O)c2cccnc2Sc2cc(NC(=O)c3ccc(OC(F)(F)F)cc3)ccc21` showed an RP-LC retention time of 936 s.
Work on `O=C(C1COc2ccccc2O1)N1CC(n2ccnc2)C1` (stereo unspecified) yielded an RP-LC retention time of 594 s.
`CCC(=O)Nc1ccc(CCc2nc3ccc(C(=O)NCc4ccc(C)o4)cc3[nH]2)cc1` gave an RP-LC retention time of 638 s.
`Cc1noc(-c2cc(=O)n(CC(=O)Nc3ccccc3)c3ccccc23)n1` showed an RP-LC retention time of 840 s.
Work on `CCC(C)NC(=O)Cn1c(=O)cc(-c2nc(C3CC3)no2)c2ccccc21` (stereo unspecified) yielded an RP-LC retention time of 863 s.
For `COc1cc2c(cc1OC)C(C(=O)N1CCN(c3ccccn3)CC1)C(c1cccnc1)N(C)C2=O` (stereo unspecified), the RP-LC retention time was 1230 s.
For `COc1ccc(NC(=O)c2cnc3c(c2)c(=O)n(C)c(=O)n3-c2ccc(C)cc2)cc1OC`, the RP-LC retention time was 836 s.
